Source: patent US20140045824A1, “METHOD FOR PRODUCING COMPLEX CRYSTAL AND METHOD FOR SCREENING COMPLEX CRYSTAL” (priority 2011, published 2014)

Assays:
Format in all cases: physicochemical
[1] = Cocrystal screening by slurry method (Comparative Examples 4-1 to 4-6), powder X-ray diffraction; design: key: A cocrystal was completely formed.; B: A mixture of a cocrystal and the host compound or guest compound was formed.; C: A cocrystal was not formed (a mixture of the host compound and the guest compound was formed); conditions: host carbamazepine
Procedure: (§1) 3 mg (0.0127 mmoles) of carbamazepine and a guest compound shown in Table 4 in an equimolar amount (0.0127 mmoles) to carbamazepine were weighed and put into a glass container, to which was then added 60 μL of water. These were shaken at room temperature for 7 days, and the obtained residues were subjected to powder X-ray diffraction measurement. 3 mg (0.0127 mmoles) of carbamazepine and a guest compound shown in Table 4 in an equimolar amount (0.0127 mmoles) to carbamazepine were weighed and put into a glass container, to which was then added 60 μL of ethanol. These were shaken at room temperature for 7 days, and the obtained residues were subjected to powder X-ray diffraction measurement. 3 mg (0.0127 mmoles) of carbamazepine and a guest compound shown in Table 4 in an equimolar amount (0.0127 mmoles) to carbamazepine were weighed and put into a glass container, to which was then added 60 μL of tetrahydrofuran. These were shaken at room temperature for 7 days, and the obtained residues were subjected to powder X-ray diffraction measurement. 3 mg (0.0127 mmoles) of carbamazepine and a guest compound shown in Table 4 in an equimolar amount (0.0127 mmoles) to carbamazepine were weighed and put into a glass container, to which was then added 60 μL of toluene. These were shaken at room temperature for 7 days, and the obtained residues were subjected to powder X-ray diffraction measurement. 3 mg (0.0127 mmoles) of carbamazepine and a guest compound shown in Table 4 in an equimolar amount (0.0127 mmoles) to carbamazepine were weighed and put into a glass container, to which was then added 60 μL of ethyl acetate. These were shaken at room temperature for 7 days, and the obtained residues were subjected to powder X-ray diffraction measurement. 3 mg (0.0127 mmoles) of carbamazepine and a guest compound shown in Table 4 in an equimolar amount (0.0127 mmoles) to carbamazepine were weighed and put into a glass container, to which was then added 60 μL of acetone. These were shaken at room temperature for 7 days, and the obtained residues were subjected to powder X-ray diffraction measurement.

[2] = as above; design: key: A cocrystal was completely formed.; B: A mixture of a cocrystal and the host compound or guest compound was formed.; C: A cocrystal was not formed (a mixture of the host compound and the guest compound was formed).; —: A residue was not obtained; conditions: host carbamazepine, slurry in tetrahydrofuran, room temperature 7 days
Procedure: as §1

[3] = Cocrystal screening by heating method without menthol (Comparative Example 6); design: key: A cocrystal was completely formed.; B: A mixture of a cocrystal and the host compound or guest compound was formed.; C: A cocrystal was not formed (a mixture of the host compound and the guest compound was formed); conditions: host carbamazepine, equimolar guest, no menthol, 4 hours at 80° C.
Procedure: Carbamazepine and a guest compound shown in Table 4 in an equimolar amount to carbamazepine were weighed and mixed using an agate mortar. At that time, particles having a large size to an extent that they could be distinguished through visual inspection were grinded on the agate mortar. 10 mg of this mixed powder was weighed and put into a test tube and heated for 4 hours in an oven at 80° C., and the obtained solids were subjected to powder X-ray diffraction measurement and thermal analysis.

[4] = Cocrystal screening by mixing and grinding method (Comparative Example 5); design: key: A cocrystal was completely formed.; B: A mixture of a cocrystal and the host compound or guest compound was formed.; C: A cocrystal was not formed (a mixture of the host compound and the guest compound was formed); conditions: host carbamazepine, equimolar guest, mixed/ground in agate mortar
Text: Carbamazepine and a guest compound shown in Table 4 in an equimolar amount to carbamazepine were weighed and mixed using an agate mortar. At that time, particles having a large size to an extent that they could be distinguished through visual inspection were grinded on the agate mortar. The obtained solids were subjected to powder X-ray diffraction measurement and thermal analysis.

[5] = Cocrystal screening by heat melting 1-menthol (Example 2), powder X-ray diffraction and thermal analysis; design: key: A cocrystal was completely formed.; B: A mixture of a cocrystal and the host compound or guest compound was formed.; C: A cocrystal was not formed (a mixture of the host compound and the guest compound was formed); conditions: host carbamazepine, equimolar guest, 1-menthol added, 10 hours at 80° C.
Procedure: Carbamazepine and a guest compound shown in Table 4 in an equimolar amount to carbamazepine were weighed and mixed using an agate mortar. […] Thereafter, the obtained mixed powder of carbamazepine, the guest compound, and 1-menthol was heated for 10 hours in an oven at 80° C., and the obtained solids were subjected to powder X-ray diffraction measurement and thermal analysis.

O=C(O)CC(=O)O [Malonic acid]
Cocrystal formation, Comparative Example 4-6 ([1]; slurry in acetone, room temperature 7 days): C
Cocrystal formation, Comparative Example 4-2 ([1]; slurry in ethanol, room temperature 7 days): C
Cocrystal formation, Comparative Example 4-5 ([1]; slurry in ethyl acetate, room temperature 7 days): A
Cocrystal formation, Comparative Example 4-4 ([1]; slurry in toluene, room temperature 7 days): B
Cocrystal formation, Comparative Example 4-1 ([1]; slurry in water, room temperature 7 days): C
Cocrystal formation, Comparative Example 4* ([1]; slurry summary: A if a cocrystal was formed in any one of Comparative Examples 4-1 to 4-6): A
Cocrystal formation, Comparative Example 4-3 [2]: —
Cocrystal formation, Comparative Example 6 [3]: B
Cocrystal formation, Comparative Example 5 [4]: C
Cocrystal formation, Example 2 [5]: A
